Earlier results, collected in US20080194655A1, “ZERO ORDER CONTROLLED RELEASE COMPOSITIONS OF TIZANIDINE” (priority 2007, published 2008).

Test system: cognitive function (attention)
Conditions: doses of 0.5-0.7 g/kg alcohol

peak impairment (decrement) in Power of Attention compared to baseline: about 150 msec
SMILES: CCO [alcohol]
